{
  "source": "patent US20130261114A1",
  "about": "“COMPOUNDS USEFUL AS INHIBITORS OF CHOLINE KINASE” (priority 2011, published 2013)",
  "note": "Values joined by “and” are separate entries in the source; they are usually repeats but may differ in a detail not shown here. Equal values may be shown once.",
  "data": [
    {"molecular_target": "T1, Choline Kinase alpha enzyme (Homo sapiens, UniProt P35790)", "T1 construct": "hChoKα1 (M1-V457) (NP_001268); GST (N); made in house; host or cells: E. coli BL21(DE3)", "T1 sequence (P35790 whole entry)": "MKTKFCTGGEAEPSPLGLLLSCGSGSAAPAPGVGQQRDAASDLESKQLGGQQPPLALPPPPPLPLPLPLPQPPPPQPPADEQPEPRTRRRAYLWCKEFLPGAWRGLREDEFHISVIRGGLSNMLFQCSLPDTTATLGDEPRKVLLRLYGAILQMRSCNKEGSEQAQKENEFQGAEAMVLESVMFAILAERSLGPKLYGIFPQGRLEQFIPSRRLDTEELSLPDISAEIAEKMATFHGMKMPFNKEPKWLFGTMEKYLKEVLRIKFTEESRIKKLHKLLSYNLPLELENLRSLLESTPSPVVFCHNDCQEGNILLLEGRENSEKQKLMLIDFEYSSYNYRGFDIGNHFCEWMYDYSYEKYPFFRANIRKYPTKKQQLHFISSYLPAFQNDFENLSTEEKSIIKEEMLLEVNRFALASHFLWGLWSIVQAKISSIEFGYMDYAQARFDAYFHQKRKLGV", "experiment": "Choline Kinase Alpha Inhibition Assay", "assay_type": "biochemical", "details": "20 nM enzyme, 200 μM choline chloride, 400 μM ATP, 25° C., coupled NADH absorbance at 340 nm; read-out: IC50 values (inhibiting Choline Kinase Alpha)", "procedure": "An assay buffer solution was prepared which consisted of 100 mM Tris-HCl (pH 7.5), 100 mM KCl, and 10 mM MgCl2. An enzyme buffer containing reagents to final assay concentrations of 290 μM NADH, 2.4 mM phosphoenolpyruvate, 60 μg/mL pyruvate kinase, 20 μg/mL lactate dehydrogenase, 200 μM choline chloride substrate and 20 nM Choline Kinase alpha enzyme was prepared in assay buffer. To 32 μL of this enzyme buffer, in a 96 well plate, was added 2 μL of VRT stock solution in DMSO. The mixture was allowed to equilibrate for 10 mins at 25° C. The enzyme reaction was initiated by the addition of 32 μL stock ATP solution prepared in assay buffer to a final assay concentration of 400 μM. Initial rate data was determined from the rate of change of absorbance at 340 nm (corresponding to stoichiometric consumption of NADH) using a Molecular Devices Spectramax plate reader (Sunnyvale, Calif.) over 15 mins at 25° C. For each IC50 determination, 12 data points covering the VRT concentration range of 0-100 μM were obtained in duplicate (DMSO stocks were prepared from an initial 10 mM VRT stock with subsequent 1:2.5 serial dilutions). IC50 values were calculated from initial rate data using the Prism software package (Prism 4.0a, Graphpad Software, San Diego, Calif.).\nhChoKα1 (M1-V457) (NP_001268) was codon optimized for E. coli and cloned into a modified pGEX-2T vector. Recombinant GST-tagged ChoKα1 protein was produced in E. coli strain BL21(DE3). After growing cell cultures at 37° C. until the OD600=1, the cultures were induced with 1 mM IPTG for 16 h at 30° C. and the cells were harvested as a pellet (8500 rpm, 4° C., 20 min). The protein was purified using glutathione affinity purification followed by size exclusion via Superdex-200 26/60 (GE Healthcare). See Malito, Enrico et. al., “Journal of Molecular Biology”, Volume 364, Issue 2, pages 136-151 (November 2006).", "values": [
      {"smiles": "Cc1ccccc1C(O)(Cc1ccccc1)C1CN2CCC1CC2", "note": "(single isomer, unassigned) [Compound I-78, 1-(o-tolyl)-2-phenyl-1-quinuclidin-3-yl-ethanol]", "IC50": "< 100 nM"},
      {"smiles": "CN(C)c1ccc(C(O)(c2ccc(N(C)C)cc2)C2CN3CCC2CC3)cc1", "note": "(centres unmarked) [Compound I-79]", "IC50": "100 to 1000 nM and 1000 to 75000 nM"},
      {"smiles": "CN(C)c1ccc(CCC(O)(c2ccc(N(C)C)cc2)C2CN3CCC2CC3)cc1", "note": "(centres unmarked) [Compound I-17]", "IC50": "1000 to 75000 nM"},
      {"smiles": "OC(Cc1ccccc1)(Cc1ccccc1)C1CN2CCC1CC2", "note": "(centres unmarked) [Compound I-83]", "IC50": "1000 to 75000 nM"},
      {"smiles": "Cc1ccccc1C(O)(Cc1ccccc1)C1CN2CCC1CC2", "note": "(single isomer, unassigned) [Compound I-84, 1-(o-tolyl)-2-phenyl-1-quinuclidin-3-yl-ethanol]", "IC50": "1000 to 75000 nM"},
      {"smiles": "OC(c1ccc(Cl)s1)(c1ccc(Cl)s1)C1CN2CCC1CC2", "note": "(centres unmarked) [Compound I-81]", "IC50": "100 to 1000 nM"},
      {"smiles": "OC(Cc1ccccc1)(c1ccccc1)C1CN2CCC1CC2", "note": "(centres unmarked) [Compound I-80]", "IC50": "100 to 1000 nM"},
      {"smiles": "OC(c1ccccc1)(c1ccc(Cl)cc1)C1C[N@]2CC[C@@H]1CC2", "note": "(some centres unmarked) [Compound I-86]", "IC50": "100 to 1000 nM"},
      {"smiles": "OC(c1cccc(Cl)c1)(c1cccc(Cl)c1)C1CN2CCC1CC2", "note": "(centres unmarked) [Compound I-82]", "IC50": "1000 to 75000 nM"},
      {"smiles": "OC(c1ccccc1)(c1ccccc1Cl)C1C[N@]2CC[C@@H]1CC2", "note": "(some centres unmarked) [Compound I-85]", "IC50": "100 to 1000 nM"},
      {"smiles": "OC(c1ccccc1)(c1ccccc1)C1CN2CCC1CC2", "note": "(centres unmarked) [Compound I-87]", "IC50": "100 to 1000 nM"}
    ]}
  ]
}
